Each structure is given as a SMILES string. Activity calls are given as the source filed them. Cut-off read from the data, not from the text of the source: actives have a measured IC50 and inactives only a lower limit.

The IC50 is the concentration at which inhibition is half-maximal.

Sequence of Envelope glycoprotein gp160 (Q6QLK5 whole entry, the tested form may be a part): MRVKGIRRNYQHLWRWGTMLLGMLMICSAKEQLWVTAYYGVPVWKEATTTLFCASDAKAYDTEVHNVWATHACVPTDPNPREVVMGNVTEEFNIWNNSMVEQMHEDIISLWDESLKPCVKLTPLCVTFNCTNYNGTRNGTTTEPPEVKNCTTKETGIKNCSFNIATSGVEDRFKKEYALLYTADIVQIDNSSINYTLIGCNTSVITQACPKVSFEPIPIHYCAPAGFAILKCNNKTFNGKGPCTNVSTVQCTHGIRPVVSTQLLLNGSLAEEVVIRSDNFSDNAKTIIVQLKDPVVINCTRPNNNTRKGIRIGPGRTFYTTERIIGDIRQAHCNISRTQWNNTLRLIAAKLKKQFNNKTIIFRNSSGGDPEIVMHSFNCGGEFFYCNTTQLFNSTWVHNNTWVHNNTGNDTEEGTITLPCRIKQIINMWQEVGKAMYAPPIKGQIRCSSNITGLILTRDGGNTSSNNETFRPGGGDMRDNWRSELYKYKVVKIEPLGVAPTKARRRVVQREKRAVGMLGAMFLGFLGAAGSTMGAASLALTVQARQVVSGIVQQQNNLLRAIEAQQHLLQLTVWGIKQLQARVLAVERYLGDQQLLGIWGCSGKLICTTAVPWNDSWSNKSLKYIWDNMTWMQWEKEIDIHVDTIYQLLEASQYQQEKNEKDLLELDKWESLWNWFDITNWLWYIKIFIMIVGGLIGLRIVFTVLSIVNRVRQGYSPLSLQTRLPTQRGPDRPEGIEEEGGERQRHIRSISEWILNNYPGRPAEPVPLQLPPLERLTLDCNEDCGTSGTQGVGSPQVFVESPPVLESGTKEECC

The assay concerns the target Envelope glycoprotein gp160 (Human immunodeficiency virus 1, UniProt Q6QLK5). The assay can be described thus: inhibitors of HIV fusion peptide binding, primary screen, biochemical, uHTS, fluorescence dequenching (AID 1986).
`O=C(O)COc1ccc(Br)cc1C(c1c(C(=O)O)[nH]c2ccccc12)c1c(C(=O)O)[nH]c2ccccc12`: the IC50 is 5.76 µM (active).
On to `CC(C)NC(=O)c1sc(=S)n2c1[nH]c(=O)c1ccc(C(=O)NCCc3ccc(Cl)cc3)cc12`, for which the IC50 was 95.7 µM (active).
The result for `COc1ccc(/N=C2\S/C(=C\c3ccc(OCC(=O)O)cc3)C(=O)N2CCc2c[nH]c3ccccc23)cc1` reads 12.6 µM (active).
The result for `CC1=NN(c2ccc(C(=O)O)cc2)C(=O)/C1=C\c1ccc(OC(=O)c2cccs2)cc1` reads 12.6 µM (active).
